In the assay the test system is primary cortical neurons. The assay is described as follows: Lysosome enrichment, immunoisolation of LAMP2- or LC3-positive vesicles and Aβ immunoprecipitation with western immunoblotting. Type of assay: cell-based, mouse. Particulars: Aβ 500 nM, 4 h; for Intraneuronal accumulation of Aβ peptides by immunoprecipitation of total Aβ (rank order): IP from PNS with 4G8; for Aβ levels in the lysosomal/late endosomal enriched fraction (16,000 g pellet): immunoblot, two independent experiments; for Aβ in LAMP2-immunoisolated lysosomes: compared to p-Ser8Aβ. As for the experimental part:
Cells after respective washing steps were collected by scraping and homogenized in isotonic buffer (10 mM Tris-HCl, pH 7.4, 1 mM MgCl2, 0.1 mM EGTA, 0.25 M sucrose) containing protease and phosphatase inhibitors, by repeated suspension through a 23 G × 1” needle. Cell homogenate was centrifuged at 2,000 g for 5 min. Pellet (nuclear material) was discarded. The post-nuclear supernatant was centrifuged at 16,100 g for 15 min. Pellet comprised of lysosome enriched material and the supernatant was used as the crude lysosome depleted material. Pellet was resuspended in STEN-lysis buffer and the lysosome enriched fraction was the supernatant collected after centrifugation at 16,100 g for 15 min. Supernatant was further centrifuged at 16,100 g for 60 min. The resultant pellet contained lysosome depleted material and supernatant was crude cytosolic material. The pellet was re-homogenized in STEN-lysis buffer and the supernatant was the lysosome depleted fraction collected post-centrifugation at 16,100 g for 15 min.
Cells after respective washing steps were collected by scraping and homogenized in either isotonic buffer or hypotonic D buffer containing protease and phosphatase inhibitors by repeated suspension through a 23 G × 1” needle. Cell homogenate was centrifuged at 2,000 g for 5 min and the nuclear material (pellet) was discarded. The post-nuclear supernatant was then used for IP experiments. Sepharose G beads (ThermoFisher Scientific, 101242) were incubated with PNS material at RT for 1 h, beads were further pelleted down and boiled in 1% SDS in 50 mM Tris-HCl, pH 7.6 along with sample buffer, used as bead control. Supernatant exposed to beads only were devoid of nonspecific binding substrates and was used further as loading control. New set of beads were precoated with respective primary antibodies for 1 h and then incubated with the PNS solutions overnight at 4°C. Beads were pelleted down and boiled with 1% SDS in 50 mM Tris-HCl along with sample buffer as the IP eluate.
For different cellular fractions prepared as described earlier, the protein content was estimated using the standard Pierce™ BCA protein assay kit (ThermoFisher Scientific, 23225). For direct comparison between the samples, equal amount of protein was loaded. Samples were dissolved in Laemmli buffer and were boiled at 95°C for 5 min. They were loaded on a precast 4–12% NuPage® Bis-Tris gels (Life technologies, NP033–5/6, WG140–2/3). Gels and prestained protein molecular weight markers were purchased from Life technologies. The separated proteins were electro-transferred onto a 0.2-μm nitrocellulose (NT) membrane (Amersham, 1060001) for 1 h 45 min. After blotting, the NT membranes were boiled in PBS for 10 min. Ponceau staining was done to monitor protein loading of samples. The blots were then incubated in 5% skim milk in TBS-T (TBS [50 mM Tris-HCl, pH 7.5, 150 mM NaCl] containing 0.1% Tween 20 [Sigma Aldrich, P1379]) for 1 h at RT. Blots were incubated overnight at 4°C in the primary antibody solution (respective dilutions in TBS-T, Table 1). Blots were washed and incubated with appropriate secondary antibodies conjugated either with HRP or fluorescent dyes for 1 h. Blots were developed either by enhanced chemiluminescence (ECL) or fluorescence imaging. For ECL imaging, blots were incubated with equivalent mixtures of ECL solution A (0.1 M Tris, 0.4 mM coumaric acid, 2.5 mM luminol, pH 8.5) and B (0.1 M Tris, 0.018% H2O2) mixed prior to application on blots. Signals were detected with an ECL imager (Bio-Rad, Germany). For fluorescence detection, blots were imaged on a Li-COR imaging station (Li-COR Biosciences, Germany). Blots were presented as is or with minimal linear contrast enhancement (Figure 5B–D; S1; S3E; S5E, S8E). Quantification of band signals was done using ImageJ – Gel processing module or Image Studio processing software (LiCOR Biosciences, Germany). […]
Background: A western blot detects proteins with antibodies after separation by electrophoresis.

In the case of “amyloid-β phosphorylated at serine residue 8 [p-Ser8Aβ]”, the “Intraneuronal accumulation of Aβ peptides by immunoprecipitation of total Aβ (rank order)” value (shortened to “Intraneuronal accumulation”) is given as “p-Ser8Aβ > p-Ser26Aβ > npAβ” and the “Aβ levels in the lysosomal/late endosomal enriched fraction (16,000 g pellet)” value was “only marginal levels”. Also, the “Aβ in LC3 immunoisolated vesicles” value (western immunoblot 82E1) is reported as “high levels”.

As for “amyloid-β phosphorylated at serine residue 26 [p-Ser26Aβ]”, the “Intraneuronal accumulation” value was “p-Ser8Aβ > p-Ser26Aβ > npAβ” and the “Aβ levels in the lysosomal/late endosomal enriched fraction (16,000 g pellet)” value was “high levels”. The “Aβ in LAMP2-immunoisolated lysosomes” value (western immunoblot 82E1) is “strongly enriched”.

“non-phosphorylated amyloid-β [npAβ, reference compound]”: the “Intraneuronal accumulation” value was “p-Ser8Aβ > p-Ser26Aβ > npAβ” and the “Aβ levels in the lysosomal/late endosomal enriched fraction (16,000 g pellet)” value is “moderate levels”. The “Aβ in LAMP2-immunoisolated lysosomes” value (western immunoblot 82E1) is listed as “strongly enriched”.

The values are drawn from article PMC10761119, “Phosphorylation-state dependent intraneuronal sorting of Aβ differentially impairs autophagy and the endo-lysosomal system” (Autophagy, 2023).
